# Assays:
# Mus musculus [1] = test: Mortality rate of BALB/c mouse infected with Escherichia coli O111:B4 at 25 ug, im within 48 hrs; format: functional
# Mus musculus [2] = test: Survival rate of BALB/c mouse infected with Escherichia coli O111:B4 at 25 ug, im within 48 hrs; format: functional
smiles,measurement,setting,value
CO/N=C(\C(=O)N[C@@H]1C(=O)N2C(C(=O)O)=C(COC(N)=O)CS[C@H]12)c1ccco1 [CEFUROXIME],Survival,Mus musculus [1],91.4%
same,Survival,Mus musculus [2],5%

# From ChEMBL document CHEMBL1142208, “Protection of mice from lethal Escherichia coli infection by chimeric human bactericidal/permeability-increasing protein and immunoglobulin G1 Fc gene delivery” (2007)
